Experimental data from ChEMBL document CHEMBL1697821, “Development of a phospholipidosis database and predictive quantitative structure-activity relationship (QSAR) models” (Toxicol Mech Methods, 2008).

Tested on: Phospholipidosis
Assay: Literature-mined public compounds from Kruhlak et al phospholipidosis modelling dataset

**Q.** How did the Phospholipidosis turn out when `C=CC1=C(C(=O)O)N2C(=O)[C@@H](NC(=O)/C(=N\OCC(=O)O)c3csc(N)n3)[C@H]2SC1` [CEFIXIME] was run?
**A.** Negative: based on the absence of positive reported data from WMDD

**Q.** Which Phospholipidosis does the source give for `CO[C@@]1(NC(=O)C2SC(=C(C(N)=O)C(=O)O)S2)C(=O)N2C(C(=O)O)=C(CSc3nnnn3C)CS[C@@H]21` (some centres not stated) [CEFOTETAN] here?
**A.** Negative: based on the absence of positive reported data from WMDD

**Q.** For `NC(=O)c1cc[n+](CC2=C(C(=O)O)N3C(=O)[C@@H](NC(=O)[C@@H](c4ccccc4)S(=O)(=O)[O-])[C@H]3SC2)cc1` [CEFSULODIN], which Phospholipidosis is on record?
**A.** Negative: based on the absence of positive reported data from WMDD

**Q.** How did the Phospholipidosis turn out when `CC(C)(O/N=C(\C(=O)N[C@@H]1C(=O)N2C(C(=O)[O-])=C(C[n+]3ccccc3)CS[C@H]12)c1csc(N)n1)C(=O)O` [CEFTAZIDIME] was run?
**A.** Negative: based on the absence of positive reported data from WMDD

**Q.** For `O=C(Cn1cnnn1)N[C@@H]1C(=O)N2C(C(=O)O)=C(CSc3nncs3)CS[C@H]12` [CEFTEZOLE], which Phospholipidosis is on record?
**A.** Negative: based on the absence of positive reported data from WMDD

**Q.** With `CO/N=C(\C(=O)N[C@@H]1C(=O)N2C(C(=O)O)=C(CSc3nc(=O)c(=O)[nH]n3C)CS[C@H]12)c1csc(N)n1` [CEFTRIAXONE] as the molecule, how does the Phospholipidosis read?
**A.** Negative: based on the absence of positive reported data from WMDD

**Q.** Which Phospholipidosis does the source give for `CC(=O)OCC1=C(C(=O)O)N2C(=O)[C@@H](NC(=O)[C@H](N)c3ccccc3)[C@H]2SC1` [CEPHALOGLYCIN] here?
**A.** Negative: based on the absence of positive reported data from WMDD

**Q.** `O=C(N[C@H](CO)[C@H](O)c1ccc([N+](=O)[O-])cc1)C(Cl)Cl` [CHLORAMPHENICOL] was tested. Which Phospholipidosis did it give?
**A.** Positive: weak inducer based on presence of foamy macrophages and cytoplasmic vacuolations

**Q.** For `CN1CCN(C(c2ccccc2)c2ccc(Cl)cc2)CC1` (configuration not stated) [CHLORCYCLIZINE], which Phospholipidosis is on record?
**A.** Positive: strong inducer confirmed by electron microscopy

**Q.** Which Phospholipidosis does the source give for `CC(=O)O[C@]1(C(C)=O)CC[C@H]2[C@@H]3C=C(Cl)C4=CC(=O)CC[C@]4(C)[C@H]3CC[C@@]21C` [CHLORMADINONE ACETATE] here?
**A.** Negative: based on the absence of positive reported data from WMDD

**Q.** `CC(=O)[C@@]1(O)CC[C@H]2[C@@H]3C=C(Cl)C4=CC(=O)CC[C@]4(C)[C@H]3CC[C@@]21C` [CHLORMADINONE] was tested. Which Phospholipidosis did it give?
**A.** Negative: based on the absence of positive reported data from WMDD

**Q.** `CC(CCCN(CCCl)CCCl)Nc1ccnc2cc(Cl)ccc12` (configuration not stated) [CHLOROQUINE MUSTARD] was tested. Which Phospholipidosis did it give?
**A.** Positive: weak inducer based on presence of foamy macrophages and cytoplasmic vacuolations

**Q.** With `CCN(CC)CCCC(C)Nc1ccnc2cc(Cl)ccc12` (configuration not stated) [CHLOROQUINE] as the molecule, how does the Phospholipidosis read?
**A.** Positive: strong inducer confirmed by electron microscopy

**Q.** `NS(=O)(=O)c1cc2c(cc1Cl)N=CNS2(=O)=O` [CHLOROTHIAZIDE] was tested. Which Phospholipidosis did it give?
**A.** Negative: based on the absence of positive reported data from WMDD

**Q.** `Oc1c(Cl)cc(Cl)c2cccnc12` [CHLOROXINE] was tested. Which Phospholipidosis did it give?
**A.** Negative: based on the absence of positive reported data from WMDD

**Q.** For `CC(C)(N)Cc1ccc(Cl)cc1` [CHLORPHENTERMINE], which Phospholipidosis is on record?
**A.** Positive: strong inducer confirmed by electron microscopy

**Q.** `CN(C)CCCN1c2ccccc2Sc2ccc(Cl)cc21` [CHLORPROMAZINE] was tested. Which Phospholipidosis did it give?
**A.** Positive: strong inducer confirmed by electron microscopy

**Q.** For `CCCNC(=O)NS(=O)(=O)c1ccc(Cl)cc1` [CHLORPROPAMIDE], which Phospholipidosis is on record?
**A.** Negative: based on the absence of positive reported data from WMDD

**Q.** With `CN(C)[C@@H]1C(O)=C(C(N)=O)C(=O)[C@@]2(O)C(O)=C3C(=O)c4c(O)ccc(Cl)c4[C@@](C)(O)[C@H]3C[C@@H]12` [CHLORTETRACYCLINE] as the molecule, how does the Phospholipidosis read?
**A.** Negative: confirmed by electron microscopy

**Q.** Which Phospholipidosis does the source give for `CN/C(=N/CCSCc1nc[nH]c1C)NC#N` [CIMETIDINE] here?
**A.** Negative: confirmed by electron microscopy

**Q.** `CC(C)(Oc1ccc(C2CC2(Cl)Cl)cc1)C(=O)O` (configuration not stated) [CIPROFIBRATE] was tested. Which Phospholipidosis did it give?
**A.** Negative: confirmed by electron microscopy

**Q.** How did the Phospholipidosis turn out when `CN(C)CCCC1(c2ccc(F)cc2)OCc2cc(C#N)ccc21` (configuration not stated) [CITALOPRAM] was run?
**A.** Positive: strong inducer confirmed by electron microscopy

**Q.** For `CC[C@H]1OC(=O)[C@H](C)[C@@H](O[C@H]2C[C@@](C)(OC)[C@@H](O)[C@H](C)O2)[C@H](C)[C@@H](O[C@@H]2O[C@H](C)C[C@H](N(C)C)[C@H]2O)[C@](C)(OC)C[C@@H](C)C(=O)[C@H](C)[C@@H](O)[C@]1(C)O` [CLARITHROMYCIN], which Phospholipidosis is on record?
**A.** Negative: confirmed by electron microscopy

**Q.** Which Phospholipidosis does the source give for `O=C(O)[C@H]1/C(=C/CO)O[C@@H]2CC(=O)N21` [CLAVULANIC ACID] here?
**A.** Negative: based on the absence of positive reported data from WMDD

**Q.** `CCC[C@@H]1C[C@@H](C(=O)N[C@@H]([C@H]2O[C@H](SC)[C@H](O)[C@@H](O)[C@H]2O)[C@H](C)Cl)N(C)C1` [CLINDAMYCIN] was tested. Which Phospholipidosis did it give?
**A.** Positive: strong inducer confirmed by electron microscopy

**Q.** For `Oc1c(I)cc(Cl)c2cccnc12` [CLIOQUINOL], which Phospholipidosis is on record?
**A.** Negative: based on the absence of positive reported data from WMDD

**Q.** Which Phospholipidosis does the source give for `CC(CN(C)C)C(C)(O)Cc1ccc(Cl)cc1` (configuration not stated) [CLOBUTINOL] here?
**A.** Negative: based on the absence of positive reported data from WMDD

**Q.** How did the Phospholipidosis turn out when `CC1(C)N=C(N)N=C(N)N1OCc1ccc(Cl)c(Cl)c1` [CLOCIGUANIL] was run?
**A.** Positive: weak inducer based on presence of foamy macrophages and cytoplasmic vacuolations

**Q.** With `CC(C)/N=c1\cc2n(-c3ccc(Cl)cc3)c3ccccc3nc-2cc1Nc1ccc(Cl)cc1` [CLOFAZIMINE] as the molecule, how does the Phospholipidosis read?
**A.** Negative: based on the absence of positive reported data from WMDD

**Q.** With `CN(C)C(=O)CCCOC(=O)C(C)(C)Oc1ccc(Cl)cc1` [CLOFIBRIDE] as the molecule, how does the Phospholipidosis read?
**A.** Negative: based on the absence of positive reported data from WMDD

**Q.** Which Phospholipidosis does the source give for `CCOC(=O)NC(C)(C)Cc1ccc(Cl)cc1` [CLOFOREX] here?
**A.** Negative: confirmed by electron microscopy

**Q.** How did the Phospholipidosis turn out when `N#Cc1ccc(NC(=O)N=C(N)N)cc1Cl` [CLOGUANAMIL] was run?
**A.** Positive: weak inducer based on presence of foamy macrophages and cytoplasmic vacuolations

**Q.** Which Phospholipidosis does the source give for `CN(C)CCCC1c2ccccc2Nc2ccc(Cl)cc21` (configuration not stated) [CLOMACRAN] here?
**A.** Positive: strong inducer confirmed by electron microscopy

**Q.** For `CN(C)CCCN1c2ccccc2CCc2ccc(Cl)cc21` [CLOMIPRAMINE], which Phospholipidosis is on record?
**A.** Positive: strong inducer confirmed by electron microscopy

**Q.** For `Clc1cccc(Cl)c1N=C1NCCN1` [CLONIDINE], which Phospholipidosis is on record?
**A.** Negative: based on the absence of positive reported data from WMDD

**Q.** For `C[C@]12C=CC(=O)C=C1C(Cl)=C[C@@H]1[C@@H]2[C@@H](O)C[C@@]2(C)[C@H]1CC[C@]2(O)C(=O)CO` [CLOPREDNOL], which Phospholipidosis is on record?
**A.** Negative: based on the absence of positive reported data from WMDD

**Q.** For `CC(C)(N)Cc1ccccc1Cl` [CLORTERMINE], which Phospholipidosis is on record?
**A.** Negative: based on the absence of positive reported data from WMDD

**Q.** How did the Phospholipidosis turn out when `CN1CCN(C2=Nc3ccccc3Sc3ccc(Cl)cc32)CC1` [CLOTHIAPINE] was run?
**A.** Negative: based on the absence of positive reported data from WMDD

**Q.** For `CN1CCN(C2=Nc3cc(Cl)ccc3Nc3ccccc32)CC1` [CLOZAPINE], which Phospholipidosis is on record?
**A.** Positive: strong inducer confirmed by electron microscopy

**Q.** Which Phospholipidosis does the source give for `CCC(c1ccc(OCCN(CC)CC)cc1)C(CC)c1ccc(OCCN(CC)CC)cc1` (configuration not stated) [CORALGIL] here?
**A.** Positive: strong inducer confirmed by electron microscopy

**Q.** How did the Phospholipidosis turn out when `CC1CC(OC(=O)C(O)c2ccccc2)CC(C)(C)C1` (configuration not stated) [CYCLANDELATE] was run?
**A.** Negative: based on the absence of positive reported data from WMDD

**Q.** `C[C@H]1[C@H]2Cc3ccc(O)cc3[C@]1(C)CCN2CC1CC1` [CYCLAZOCINE] was tested. Which Phospholipidosis did it give?
**A.** Negative: based on the absence of positive reported data from WMDD

**Q.** Which Phospholipidosis does the source give for `CN1CCN(C(c2ccccc2)c2ccccc2)CC1` [CYCLIZINE] here?
**A.** Positive: strong inducer confirmed by electron microscopy

**Q.** `CCC1(C2=CCCCC2)C(=O)NC(=O)NC1=O` [CYCLOBARBITAL] was tested. Which Phospholipidosis did it give?
**A.** Negative: based on the absence of positive reported data from WMDD

**Q.** Which Phospholipidosis does the source give for `CC(=O)Oc1ccc(C(=C2CCCCC2)c2ccc(OC(C)=O)cc2)cc1` [CYCLOFENIL] here?
**A.** Negative: based on the absence of positive reported data from WMDD

**Q.** `CC(=O)[C@@]1(O)CC[C@H]2[C@@H]3C=C(Cl)C4=CC(=O)[C@@H]5C[C@@H]5[C@]4(C)[C@H]3CC[C@@]21C` [CYPROTERONE] was tested. Which Phospholipidosis did it give?
**A.** Negative: based on the absence of positive reported data from WMDD

**Q.** For `NCCS` [CYSTEAMINE], which Phospholipidosis is on record?
**A.** Negative: based on the absence of positive reported data from WMDD

**Q.** With `Nc1ccn([C@@H]2O[C@H](CO)[C@@H](O)[C@@H]2O)c(=O)n1` [CYTARABINE] as the molecule, how does the Phospholipidosis read?
**A.** Negative: based on the absence of positive reported data from WMDD

**Q.** Which Phospholipidosis does the source give for `CN(C)/N=N/c1[nH]cnc1C(N)=O` [DACARBAZINE] here?
**A.** Negative: based on the absence of positive reported data from WMDD

**Q.** How did the Phospholipidosis turn out when `CC(C)(N)CO` [DEANOL] was run?
**A.** Negative: based on the absence of positive reported data from WMDD

**Q.** With `N=C(N)N1CCc2ccccc2C1` [DEBRISOQUIN] as the molecule, how does the Phospholipidosis read?
**A.** Negative: based on the absence of positive reported data from WMDD

**Q.** Which Phospholipidosis does the source give for `C[N+](C)(C)CCCCCCCCCC[N+](C)(C)C.[Br-].[Br-]` [DECAMETHONIUM BROMIDE] here?
**A.** Negative: based on the absence of positive reported data from WMDD

**Q.** Which Phospholipidosis does the source give for `CC(=O)O[C@H]1CC[C@@]2(C)C(=CC[C@@H]3[C@@H]2CC[C@]2(C)C(=O)CC[C@@H]32)C1` [DEHYDROEPIANDROSTERONE ACETATE] here?
**A.** Negative: based on the absence of positive reported data from WMDD

**Q.** How did the Phospholipidosis turn out when `CC(C)Nc1cccnc1N1CCN(C(=O)c2cc3cc(NS(C)(=O)=O)ccc3[nH]2)CC1` [DELAVIRDINE] was run?
**A.** Negative: based on the absence of positive reported data from WMDD

**Q.** Which Phospholipidosis does the source give for `CNCCCN1c2ccccc2CCc2ccccc21` [DESIPRAMINE] here?
**A.** Positive: weak inducer based on presence of foamy macrophages and cytoplasmic vacuolations

**Q.** Which Phospholipidosis does the source give for `CC(=O)OCC(=O)[C@H]1CC[C@H]2[C@@H]3CCC4=CC(=O)CC[C@]4(C)[C@H]3CC[C@]12C` [DESOXYCORTICOSTERONE ACETATE] here?
**A.** Negative: based on the absence of positive reported data from WMDD

**Q.** Which Phospholipidosis does the source give for `CN1C(=O)CN=C(c2ccccc2)c2cc(Cl)ccc21` [DIAZEPAM] here?
**A.** Negative: confirmed by electron microscopy
